{"source": "patent US8809389B2", "about": "“Substituted alkynyl phenoxy compounds as new synergists in pesticidal compositions” (Endura S.p.A., priority 2009, dated 2014)", "key": {"[1]": {"molecular_target": "T1, purified resistance-associated esterase (E4) (Myzus persicae, UniProt P35501)", "T1 construct": "5 g of aphids (stored at −20° C.) were homogenised in 0.02 M phosphate buffer pH 7.0; from tissue; host or cells: whole Myzus persicae aphids, clone 794JZ; homogenate purified over G-25 and DEAE Sepharose Fast Flow", "T1 sequence (P35501 24-552)": "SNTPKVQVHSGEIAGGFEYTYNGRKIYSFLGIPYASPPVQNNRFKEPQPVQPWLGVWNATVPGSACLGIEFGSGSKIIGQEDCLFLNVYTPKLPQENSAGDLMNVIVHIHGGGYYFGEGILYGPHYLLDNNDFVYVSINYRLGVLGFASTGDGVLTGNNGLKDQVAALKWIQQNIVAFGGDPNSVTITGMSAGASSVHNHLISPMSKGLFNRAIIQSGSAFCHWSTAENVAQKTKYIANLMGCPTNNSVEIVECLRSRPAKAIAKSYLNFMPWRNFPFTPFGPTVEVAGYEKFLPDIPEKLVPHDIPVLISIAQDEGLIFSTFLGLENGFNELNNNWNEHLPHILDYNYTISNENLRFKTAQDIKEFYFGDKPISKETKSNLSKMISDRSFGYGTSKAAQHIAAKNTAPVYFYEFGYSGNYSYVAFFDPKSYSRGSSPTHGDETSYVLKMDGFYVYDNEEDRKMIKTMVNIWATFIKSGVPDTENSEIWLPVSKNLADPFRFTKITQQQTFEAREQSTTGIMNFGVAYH", "test": "Esterase interference assay (indirect determination of esterase inhibition)", "assay_type": "biochemical", "details": "for Esterase protection (%) after pre-incubation with compound: no esterase = 0%, uninhibited E4 = 100%; for Reduction of esterase protection, comparison in words: E4 esterase interference assay, Examples 13 and 16", "from_the_text": "Measuring the in vitro inhibition is not straight forward, as synergists may bind to a site other than the active site.\nThe esterase used was the well-characterised resistance associated esterase purified from M. persicae, E4, (aphid clone: 794JZ) as per Devonshire (1977) with some modifications(Devonshire A L, The properties of a carboxylesterase from the peach-potato aphid, Myzus persicae (Sulz.) and its role in conferring insecticide resistance. Biochem J 167: 675-683 (1977)). Briefly, 5 g of aphids (stored at −20° C.) were homogenised in 0.02 M phosphate buffer pH 7.0 and centrifuged at 20 000 g for 10 min. The supernatant was passed through a G-25 column using 0.02M Tris/HCl, pH 8.5 buffer. Unretarded fractions containing esterase activity were further chromatographed through DEAF Sepharose Fast Flow (Amersham Biosciences) and eluted with a linear 0-0.35 M NaCl gradient in 500 ml of Tris/HCl as above. Fractions containing carboxylesterase activity in the form of E4 were concentrated, desalted, and buffer exchanged to 0.02 M phosphate pH 7.0 for storage.\nInteractions of the purified resistance-associated esterase (E4) with Compound of Example 2, Compound of Example 3, Compound of Example 4, Compound of Example 9 and Compound of Example 11 were performed using the ‘esterase interference assay’, as described by Khot et al., with some modifications. Devonshire A L, The properties of a carboxylesterase from the peach-potato aphid, Myzus persicae (Sulz.) and its role in conferring insecticide resistance. Biochem J 167: 675-683 (1977)). Briefly, stock solutions of novel synergists (3 mM in acetone) were pre-incubated with pure E4, to give a final concentration of 0.03 mM, for 16 h at 4° C. Aliquots (15 μl ) of E4, E4+Compound of Example 2, E4+Compound of Example 3, E4+Compound of Example 4, E4+Compound of Example 9 and E4+Compound of Example 11 were incubated for 1 h with 60 μl of serial dilutions of azamethiphos in 0.02M phosphate buffer, pH 7, in separate wells of a NUNC microplate. Aliquots (25 p1) of house fly head homogenate (source of AChE) were added to each well and incubated for 15 minutes at room temperature. E4 in acetone and buffer only served as the positive and the negative controls respectively. AChE activity was measured at 405 nm using a Tmax kinetic microplate reader (Molecular Devices, Menlo Park, Calif.). Readings were taken automatically for 10 min at 10 s intervals. The rate (mOD min^−1) was calculated by the integrated software, Softmax Pro 4.6. All treatments were performed in triplicate.\nNo added esterase is giving 0% esterase protection and uninhibited esterase (E4) is giving 100% protection.\nThe materials and procedure as stated in Example 13, paragraphs 13.1, 13.1.2, 13.1.2.1 and 13.1.2.2. have been used and the following results have been obtained: […]"}, "[2]": {"system": "pollen beetle, Meligethes aeneus", "test": "Discriminating dose bioassay: α-cypermethrin in mixture with synergist", "assay_type": "in vivo", "details": "Brassicogethes aeneus; for mortality at 0.3 ppm: 0.3 ppm α-cypermethrin alone", "protocol": "(§1) Two pyrethroid resistant populations originating from two different areas in Poland ‘Rogalin'and lebork’ were collected in July 2008. A putative susceptible population, UK population, was also collected in July 2008 in Hertfordshire, UK. All populations were collected from oilseed rape contained adults only and were kept at room temperature before assays were performed.\nBioassays incorporating the compounds (Compound of Example 2 and Compound of Example 3) dissolved in acetone, were carried out using a diagnostic concentration of α-cypermethrin derived from the above full dose response bioassays in a mixture of 0.01 g L^−1 of the compounds. The concentration of α-cypermethrin used for the discriminating dose bioassays was 0.3 ppm α-cypermethrin for the two polish populations, Rogalin and Lebork and 0.03 ppm α-cypermethrin for UK population. Vials treated with the compounds only, dissolved in acetone and acetone only were used as controls. Ten to 15 replicates were used for each treatment depending on insect numbers within the population. Compounds concentrations chosen conferred no mortality in preliminary bioassays.\n(§2) Treated vials including the pollen beetles were stored in constant environment facilities at 18±2° C. and 16L: 8D. All bioassays were scored at an endpoint of 24 h after exposure to the insecticide. Insects incapable of coordinated movement (after gentle touching with a pencil brush if necessary) were scored as dead."}, "[3]": {"system": "pollen beetle, Meligethes aeneus", "test": "Full dose response bioassay (α-cypermethrin), coated glass vials, IRAC method no 11", "assay_type": "in vivo", "details": "for LC50 (lethal concentration of α-cypermethrin to kill 50% of the population): 24 h", "protocol": "as §1\nTo characterise the response of the 3 above pollen beetle populations against α-cypermethrin full dose response bioassays were carried out. The bioassay method used was based on the method recommended by the Insecticide Resistance Action Committee (IRAC method no 11). Briefly, glass vials (5.7 cm height and 2.3 cm diameter) were coated with 0.5 ml of a serial dilutions of insecticide, dissolved in acetone, (α-cypermethrin) and rolled upon a blood-roller (Luckham Multimix Major, Denley Instruments Ltd) at room temperature until the solutions had completely evaporated. Five to 20 non-sexed adult pollen beetles were placed into a vial for each replicate and the top loosely closed with a screw-cap. Three replicates were used at each insecticide concentration, 7 concentrations in all. Vials treated with acetone only were used as controls.\nas §2"}, "Myzus persicae": {"system": "Myzus persicae", "test": "Topical application bioassay on aphid clones: imidacloprid with or without synergist pre-treatment", "details": "for RF, resistance factor (LC50 resistant / LC50 susceptible population): imidacloprid; for LC50 (lethal concentration of imidacloprid to kill 50% of the population): imidacloprid alone, topical, scored 72 h", "protocol": "Aphid clones were reared on Chinese cabbage (Brassica rapa L. var. Pekinensis c.v Wong Bok) (Brassicaceae) leaves held in small plastic box-cages maintained at 18±2° C. with a 16:8 h light:dark photoperiod (Blackman R L, Variation in the photoperiodic response within natural populations of Myzus persicae (Sulzer). Bull Ent Res 60: 533-546 (1971)).\nClone 4106A is a laboratory insecticide-susceptible standard2 . […] Both aphid clones have been established from single parthenogenetic M. persicae females (Foster S P, Denholm I, Thompson R, Poppy G M, Powell W, Reduced response of insecticide-resistant aphids and attraction of parasitoids to alarm pheromone; a potential fitness trade-off. Bull Ent Res 95: 37-46 (2005)).\n12.1.2 Topical Application Bioassay with 5191A Aphid Clone Young apterae were transferred to the abaxial surface of Chinese cabbage leaf discs (10 adults per leaf disc, at least 3 replicates per concentration) held on 1% agar in plastic containers (4 cm in diameter). The upper edge of each container was coated with Fluon (Whitford Plastics, UK) to prevent subsequent aphid escape from the leaf surface. After allowing 2 h for the aphids to settle, each was dosed with 0.25 μl of either 1 g L^−1 Compound of Example 3 dissolved in acetone or acetone only. After 4 h aphids were further treated with 0.25 μl imidacloprid in acetone (96% AR) using a\nBurkard microapplicator (Burkard, Rickmansworth, UK). Controls were treated with acetone only. Treated aphids were stored at 18±2° C. and 16 h light: 8 h dark photoperiod. All bioassays were scored at the endpoint of 72 h after treatment. Adults incapable of co-ordinated movement (after gentle touching with a paint brush if necessary) were scored as dead. All bioassays were completed in triplicate."}, "[4]": {"details": "Table 2 (Example 13), 0.03 mM compound pre-incubated with E4 16 h at 4° C."}, "[5]": {"details": "second 'TABLE 3' (Example 16), procedure as Example 13"}}, "note": "Values joined by “and” are separate entries in the source; they are usually repeats but may differ in a detail not shown here. Identical values can stand only once."}
{"compound": "CC#CCOc1cc2c(cc1CCC)CCO2", "note": "[Example 11, 6-(but-2-ynyloxy)-5-propyl-2,3-dihydrobenzofuran]", "values": [{"measurement": "Esterase protection (%) after pre-incubation with compound", "setting": "[1]; [4]", "result": "−1.17", "unit": "%"}]}
{"compound": "CC#CCOc1cc2c(cc1COCCOCCOCCCC)OCO2", "note": "[Example 9, 5-[2-(2-butoxyethoxy)-ethoxy]methyl-6-(but-2-ynyloxy)-benzo[1.3]dioxole]", "values": [{"measurement": "Esterase protection (%) after pre-incubation with compound", "setting": "[1]; [4]", "result": 2.96, "unit": "%"}]}
{"compound": "CC#CCOc1cc(OC)c(OC)cc1CCC", "note": "[Example 8, 1-(but-2-ynyloxy)-6-propyl-3,4-dimethoxybenzene]", "values": [{"measurement": "Reduction of esterase protection, comparison in words", "setting": "[1]", "result": "better activity than compounds 4, 7, respectively"}, {"measurement": "Esterase protection (%) after pre-incubation with compound", "setting": "[1]; [5]", "result": 5.09, "unit": "%"}]}
{"compound": "C#CCOc1cc2c(cc1CCC)OCO2", "note": "[Example 4, 5-(propargyloxy)-6-propyl-benzo[1.3]dioxole]", "values": [{"measurement": "Reduction of esterase protection, comparison in words", "setting": "[1]", "result": "worse activity than the compound of Example 3"}, {"measurement": "Esterase protection (%) after pre-incubation with compound", "setting": "[1]; [4]", "result": 2.06, "unit": "%"}, {"measurement": "Esterase protection (%) after pre-incubation with compound", "setting": "[1]; [5]", "result": 2.06, "unit": "%"}]}
{"compound": "CC1(C)C(C=C(Cl)Cl)C1C(=O)OC(C#N)c1cccc(Oc2ccccc2)c1", "note": "(stereo not drawn) [α-cypermethrin]", "values": [{"measurement": "mortality at 0.3 ppm", "setting": "[2]; 24 h, Lebork", "result": 4.9, "unit": "%"}, {"measurement": "mortality at 0.3 ppm", "setting": "[2]; 24 h, Rogalin", "result": 2.78, "unit": "%"}, {"measurement": "mortality at 0.03 ppm", "setting": "[2]; 24 h, UK population, 0.03 ppm α-cypermethrin alone", "result": 13.6, "unit": "%"}, {"measurement": "mortality at 0.3 ppm", "setting": "[2]; Rogalin and Lebork", "result": "~5", "unit": "%"}, {"measurement": "LC50 (lethal concentration of α-cypermethrin to kill 50% of the population)", "setting": "[3]; Lebork population (pyrethroid resistant, Poland)", "result": "95.0 ηg/cm^2"}, {"measurement": "RF, resistance factor (LC50 resistant / LC50 susceptible population)", "setting": "[3]; Lebork versus UK population", "result": 44}, {"measurement": "LC50 (lethal concentration of α-cypermethrin to kill 50% of the population)", "setting": "[3]; Rogalin population (pyrethroid resistant, Poland)", "result": "65.0 ηg/cm^2"}, {"measurement": "RF, resistance factor (LC50 resistant / LC50 susceptible population)", "setting": "[3]; Rogalin versus UK population", "result": "23 and 23.21"}, {"measurement": "LC50 (lethal concentration of α-cypermethrin to kill 50% of the population)", "setting": "[3]; UK population (putative susceptible)", "result": "2.80 ηg/cm^2"}, {"measurement": "RF, resistance factor (LC50 resistant / LC50 susceptible population)", "setting": "[3]; UK population (reference)", "result": 1}]}
{"compound": "C#CCOc1ccc2c(c1)OCO2", "note": "[Example 1, 5-(propargyloxy)-benzo[1,3]dioxole, reference compound]", "values": [{"measurement": "Esterase protection (%) after pre-incubation with compound", "setting": "[1]; [4]", "result": 63.9, "unit": "%"}, {"measurement": "Esterase protection (%) after pre-incubation with compound", "setting": "[1]; [5]", "result": 63.90, "unit": "%"}]}
{"compound": "C#CCOc1cc(OC)c(OC)cc1CCC", "note": "[Example 7, 1-(propargyloxy)-6-propyl-3,4-dimethoxybenzene]", "values": [{"measurement": "Esterase protection (%) after pre-incubation with compound", "setting": "[1]; [5]", "result": 15.17, "unit": "%"}]}
{"compound": "O=[N+]([O-])NC1=NCCN1Cc1ccc(Cl)nc1", "note": "[imidacloprid]", "values": [{"measurement": "RF, resistance factor (LC50 resistant / LC50 susceptible population)", "setting": "Myzus persicae; aphid clone 4106A (susceptible reference)", "result": 1}, {"measurement": "LC50 (lethal concentration of imidacloprid to kill 50% of the population)", "setting": "Myzus persicae; aphid clone 4106A (susceptible, S)", "result": 1.6, "unit": "ppm"}, {"measurement": "RF, resistance factor (LC50 resistant / LC50 susceptible population)", "setting": "Myzus persicae; aphid clone 5191A versus 4106A", "result": 56.5}, {"measurement": "LC50 (lethal concentration of imidacloprid to kill 50% of the population)", "setting": "Myzus persicae; aphid clone 5191A, FE4(R3) resistant", "result": 90.5, "unit": "ppm"}]}
